Target: T1, human mGluR2 (Homo sapiens, UniProt Q14416)
T1 construct: fused on or other part: If FLIPR: the intracellular domain of the human calcium receptor (CASR, P41180) in place of mGluR2's own, and the promiscuous chimeric G protein Gaqi5 fused on; If GTPgammaS: nothing
Assay: mGluR2 potentiator assays described herein (FLIPR calcium mobilization in HEK 293 cells expressing chimeric mGluR2/CaR, or [35S]-GTPγS binding with CHO membranes)
Type: cell-based
Settings: active in the assays described herein; which assay (FLIPR or GTPγS) is not stated
From the text: The pharmacological properties of the compounds of the invention can be analyzed using standard assays for functional activity. Examples of glutamate receptor assays are well known in the art as described in, for example, Aramori et al., 1992, Neuron, 8:757; Tanabe et al., 1992, Neuron, 8:169; Miller et al., 1995, J. Neuroscience, 15:6103; Balazs, et al., 1997, J. Neurochemistry, 1997,69:151. The methodology described in these publications is incorporated herein by reference. Conveniently, the compounds of the invention can be studied by means of an assay that measures the mobilization of intracellular calcium, [Ca^2+]i in cells expressing mGluR2.
Fluorometric Imaging Plate Reader (FLIPR) analysis was used to detect allosteric activators of mGluR2 via calcium mobilization. A clonal HEK 293 cell line expressing a chimeric mGluR2/CaR construct comprising the extracellular and transmembrane domains of human mGluR2 and the intracellular domain of the human calcium receptor, fused to the promiscuous chimeric protein Gaqi5 was used. […] At 24-hours prior to analysis, the cells were trypsinized and plated in DMEM at 100,000 cells/well in black sided, clear-bottom, collagen I coated, 96-well plates. The plates were incubated under 5% CO2 at 37° C. overnight. Cells were loaded with 6 μM fluo-3 acetoxymethylester (Molecular Probes, Eugene Oreg.) for 60 min. at room temperature. All assays were performed in a buffer containing 126 mM NaCl, 5 mM KCl, 1 mM MgCl2, 1 mM CaCl2, 20 mM Hepes, 0.06 μM DCG-IV (a Group II mGluR selective agonist), supplemented with 1.0 mg/ml D-glucose and 1.0 mg/ml BSA fraction IV (pH 7.4).
FLIPR experiments were done using a laser setting of 0.8 W and a 0.4 second CCD camera shutter speed. Extracellular fluo-3 was washed off and cells were maintained in 160 μL of buffer and placed in the FLIPR. An addition of test compound (0.01 μM to 30 μM in duplicate) was made after 10 seconds of baseline fluorescent readings were recorded on FLIPR. Fluorescent signals were then recorded for an additional 75 seconds at which point a second addition of DCG-IV (0.2 μM) was made and fluorescent signals were recorded for an additional 65 seconds. Fluorescent signals were measured as the peak height of the response within the sample period. Data was analyzed using Assay Explorer, and EC50 and Emax values (relative to maximum DCG-IV effect) were calculated using a four parameter logistic equation.
A [^35S]-GTPγS binding assay was used to functionally assay mGluR2 receptor activation. The allosteric activator activity of compounds at the human mGluR2 receptor was measured using a [^35S]-GTPγS binding assay with membranes prepared from CHO cells which stably express the human mGluR2. The assay is based upon the principle that agonists bind to G-protein coupled receptors to stimulate GDP-GTP exchange at the G-protein. Since [^35S]-GTPγS is a non-hydrolyzable GTP analog, it can be used to provide an index of GDP-GTP exchange and, thus, receptor activation. The GTPγS binding assay therefore provides a quantitative measure of receptor activation.
Membranes were prepared from CHO cells stably transfected with human mGluR2. […] The amount of radioactivity bound was determined by counting plates on the Packard TopCount. […]

T1 sequence (Q14416 19-819 limits assumed): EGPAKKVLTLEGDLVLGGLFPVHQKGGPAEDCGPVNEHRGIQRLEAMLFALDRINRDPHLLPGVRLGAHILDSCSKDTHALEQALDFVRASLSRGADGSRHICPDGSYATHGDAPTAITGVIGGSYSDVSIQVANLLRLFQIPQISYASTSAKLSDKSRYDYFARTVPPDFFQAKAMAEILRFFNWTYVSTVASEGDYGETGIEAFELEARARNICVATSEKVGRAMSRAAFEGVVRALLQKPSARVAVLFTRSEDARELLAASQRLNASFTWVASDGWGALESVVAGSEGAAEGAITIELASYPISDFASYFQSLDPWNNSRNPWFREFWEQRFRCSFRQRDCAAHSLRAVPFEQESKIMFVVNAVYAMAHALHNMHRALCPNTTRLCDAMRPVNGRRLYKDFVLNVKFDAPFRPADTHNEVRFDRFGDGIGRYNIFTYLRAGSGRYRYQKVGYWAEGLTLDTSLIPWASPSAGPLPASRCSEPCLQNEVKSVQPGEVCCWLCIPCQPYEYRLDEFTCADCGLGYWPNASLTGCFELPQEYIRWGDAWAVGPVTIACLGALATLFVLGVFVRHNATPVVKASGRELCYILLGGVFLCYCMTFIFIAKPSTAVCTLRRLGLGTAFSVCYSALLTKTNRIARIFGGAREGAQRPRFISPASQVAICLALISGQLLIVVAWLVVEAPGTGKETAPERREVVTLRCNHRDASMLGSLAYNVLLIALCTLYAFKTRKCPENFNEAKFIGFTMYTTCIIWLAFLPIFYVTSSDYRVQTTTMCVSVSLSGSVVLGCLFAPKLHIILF

EC50 [nM]	Compound
370	CC1CCc2cc(F)cc3nc(CN4CCC(Oc5ccccc5Cl)CC4)n1c23 (centres unmarked) [Example 26.55, 8-fluoro-4-methyl-2-[4-(2-chlorophenoxy)-piperidin-1-ylmethyl]-5,6-dihydro-4H-imidazo[4,5,1-ij]quinoline]
1110	O=C1CCN2C(CN3CCC(c4ccc(F)cc4)CC3)=NC3C=C(F)C=C1C32 (centres unmarked) [Example 28.1, 8-Fluoro-2-[4-(4-fluoro-phenyl)-piperidin-1-ylmethyl]-4,5,9a,9b-tetrahydroimidazo[4,5,1-ij]quinolin-6-one]
1580	CC1CCc2cc(F)cc3nc(CN4CCN(c5ccc(F)cc5)CC4)n1c23 (centres unmarked) [Example 26.56, 8-fluoro-4-methyl-2-{[4(4-fluorophenyl)piperizin-1-yl]methyl}-5,6-dihydro-4H-imidazo[4,5,1-ij]quinoline]
230	Fc1ccc(C2CCN(Cc3nc4cccc5c4n3CCO5)CC2)cc1 [Example 26.69]

Compound	EC50 [nM]
CC1CCc2cc(F)cc3nc(CN4CC=C(c5ccc(OC(F)(F)F)cc5)CC4)n1c23 (centres unmarked) [Example 26.65, 8-fluoro-4-methyl-2-{[4-(4-trifluoromethoxyphenyl)-3,6-dihydropyridin-1(2H)-yl]methyl}-5,6-dihydro-4H-imidazo[4,5,1-ij]quinoline]	80

— patent US20070032469A1, “Tricyclic benzimidazoles and their use as metabotropic glutamate receptor modulators” (AstraZeneca AB, priority 2005, published 2007)
